# Reference: PubChem BioAssay AID330 (DTP/NCI, 2004)
# Values joined by “and” are separate entries in the source; they are usually repeats but may differ in a detail not shown here. Identical values can stand only once. Toxic doses and inconclusive results are not listed.
# System: P388 leukemia ip, CD2F1 mice, survival T/C
# Test: NCI In Vivo Anticancer Drug Screen. Data for tumor model P388 Leukemia (intraperitoneal) in CD2F1 (CDF1) mice
# Conditions: endpoint: median survival time, higher = longer survival
# Method in brief: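 Mice carrying the transplanted tumor received test compound or vehicle. Survival was recorded in each group, and the value is the treated-group measurement divided by that of the vehicle-treated control group.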
# [1] = dose: 100.0 mg/kg/injection, schedule: Q01DX009 (ip), vehicle: saline with Tween-80
# [2] = dose: 50.0 mg/kg/injection, schedule: Q01DX005 (ip), vehicle: Klucel (hydroxypropylcellulose) (HPC)
# [3] = dose: 100.0 mg/kg/injection, schedule: Q01DX005 (ip), vehicle: Klucel (hydroxypropylcellulose) (HPC)
# [4] = dose: 25.0 mg/kg/injection, schedule: Q01DX009 (ip), vehicle: saline with Tween-80
# [5] = dose: 50.0 mg/kg/injection, schedule: Q01DX009 (ip), vehicle: saline with Tween-80
# [6] = dose: 50.0 mg/kg/injection, schedule: Q01DX009 (ip), vehicle: Klucel (hydroxypropylcellulose) (HPC)
# [7] = dose: 100.0 mg/kg/injection, schedule: Q01DX009 (ip), vehicle: Klucel (hydroxypropylcellulose) (HPC)
# [8] = dose: 30.0 mg/kg/injection, schedule: Q01DX005 (ip), vehicle: Klucel (hydroxypropylcellulose) (HPC)
# [9] = dose: 50.0 mg/kg/injection, schedule: Q01DX009 (ip), vehicle: saline
# [10] = dose: 60.0 mg/kg/injection, schedule: Q01DX005 (ip), vehicle: Klucel (hydroxypropylcellulose) (HPC)
# [11] = dose: 100.0 mg/kg/injection, schedule: Q01DX009 (ip), vehicle: saline
# [12] = dose: 200.0 mg/kg/injection, schedule: Q01DX009 (ip), vehicle: saline
# [13] = dose: 12.5 mg/kg/injection, schedule: Q01DX009 (ip), vehicle: saline with Tween-80
# [14] = dose: 100.0 mg/kg/injection, schedule: Q04DX003 (ip), vehicle: saline with Tween-80
# [15] = dose: 200.0 mg/kg/injection, schedule: Q01DX009 (ip), vehicle: saline with Tween-80
# [16] = dose: 400.0 mg/kg/injection, schedule: Q01DX009 (ip), vehicle: saline with Tween-80
# [17] = dose: 50.0 mg/kg/injection, schedule: Q01DX005 (ip), vehicle: saline with Tween-80
# [18] = dose: 100.0 mg/kg/injection, schedule: Q01DX005 (ip), vehicle: saline with Tween-80
# [19] = dose: 200.0 mg/kg/injection, schedule: Q01DX005 (ip), vehicle: saline with Tween-80
smiles,measurement,setting,value
Nc1n[nH]c(N)n1,T/C,[1],109 % of control
same,T/C,"dose: 800.0 mg/kg/injection, schedule: Q01DX009 (ip), vehicle: saline with Tween-80",163 % of control
COC(=O)/C(C#N)=C/c1ccco1,T/C,[2],98 % of control
same,T/C,[3],98 % of control
N/C(=N\O)N(c1ccccc1)c1ccccc1,T/C,[4],97 % of control
same,T/C,[5],98 % of control
same,T/C,[1],99 % of control
N#CC(=Nc1ccccc1)c1cccc(Br)c1,T/C,[6],109 % of control
same,T/C,[7],109 % of control
same,T/C,"dose: 200.0 mg/kg/injection, schedule: Q01DX009 (ip), vehicle: Klucel (hydroxypropylcellulose) (HPC)",117 % of control
O=c1oc(-c2cc([N+](=O)[O-])cc([N+](=O)[O-])c2Cl)nc2ccccc12,T/C,"dose: 12.5 mg/kg/injection, schedule: Q01DX009 (ip), vehicle: Klucel (hydroxypropylcellulose) (HPC)",103 % of control and 110 % of control
same,T/C,"dose: 25.0 mg/kg/injection, schedule: Q01DX009 (ip), vehicle: Klucel (hydroxypropylcellulose) (HPC)",105 % of control and 110 % of control
same,T/C,[6],103 % of control and 94 % of control
same,T/C,[7],105 % of control
CCOC(=O)c1c[nH]c2c(ccc3cccnc32)c1=O,T/C,"dose: 15.0 mg/kg/injection, schedule: Q01DX005 (ip), vehicle: Klucel (hydroxypropylcellulose) (HPC)",99 % of control
same,T/C,[8],99 % of control
same,T/C,[9],99 % of control
same,T/C,[10],99 % of control and 97 % of control
same,T/C,[11],117 % of control
same,T/C,[12],99 % of control
O=S1(=O)C(c2cccc(C(F)(F)F)c2)=C(O)c2cc3ccccc3nc21,T/C,"dose: 6.25 mg/kg/injection, schedule: Q01DX009 (ip), vehicle: saline + Tween-80 + alcohol",105 % of control
same,T/C,"dose: 12.5 mg/kg/injection, schedule: Q01DX009 (ip), vehicle: saline + Tween-80 + alcohol",105 % of control
same,T/C,"dose: 25.0 mg/kg/injection, schedule: Q01DX009 (ip), vehicle: saline + Tween-80 + alcohol",100 % of control and 87 % of control
same,T/C,"dose: 50.0 mg/kg/injection, schedule: Q01DX009 (ip), vehicle: saline + Tween-80 + alcohol",99 % of control
same,T/C,"dose: 100.0 mg/kg/injection, schedule: Q01DX009 (ip), vehicle: saline + Tween-80 + alcohol",99 % of control
COC(=O)/C(C#N)=C(/SC)N(C)C,T/C,[13],104 % of control
same,T/C,[4],104 % of control
same,T/C,[5],102 % of control and 109 % of control
same,T/C,[1],103 % of control
CC1CC=CCC1C1NC(C(=O)O)CS1 (centres undefined),T/C,"dose: 50.0 mg/kg/injection, schedule: Q01DX009 (ip), vehicle: suspension in saline",106 % of control
same,T/C,"dose: 100.0 mg/kg/injection, schedule: Q01DX009 (ip), vehicle: suspension in saline",107 % of control and 88 % of control
same,T/C,"dose: 200.0 mg/kg/injection, schedule: Q01DX009 (ip), vehicle: suspension in saline",98 % of control and 96 % of control
COC(=O)/C(Br)=C/N(Cc1ccccc1)Cc1ccccc1,T/C,[1],110 % of control
same,T/C,[14],95 % of control
same,T/C,[15],100 % of control
same,T/C,"dose: 200.0 mg/kg/injection, schedule: Q04DX003 (ip), vehicle: saline with Tween-80",95 % of control
same,T/C,[16],110 % of control
same,T/C,"dose: 400.0 mg/kg/injection, schedule: Q04DX003 (ip), vehicle: saline with Tween-80",95 % of control
CC(=O)OC(C)(C)/N=N/C(C)(C)OC(C)=O,T/C,[4],103 % of control
same,T/C,[5],101 % of control
same,T/C,[1],111 % of control
same,T/C,[15],100 % of control
CC1CCC2(CC1)CC(=O)N(N1CCOCC1)C(=O)C2,T/C,"dose: 60.0 mg/kg/injection, schedule: Q01DX005 (ip), vehicle: suspension in saline",99 % of control
same,T/C,"dose: 120.0 mg/kg/injection, schedule: Q01DX005 (ip), vehicle: suspension in saline",99 % of control
same,T/C,"dose: 240.0 mg/kg/injection, schedule: Q01DX005 (ip), vehicle: suspension in saline",102 % of control
CCNCc1c(C)[nH]c2ccccc2c1=O,T/C,"dose: 3.12 mg/kg/injection, schedule: Q01DX009 (ip), vehicle: saline with Tween-80",100 % of control
same,T/C,"dose: 6.25 mg/kg/injection, schedule: Q01DX009 (ip), vehicle: saline with Tween-80",101 % of control
same,T/C,[13],102 % of control
same,T/C,[4],105 % of control
same,T/C,[1],91 % of control
CC(C)=NO,T/C,[9],117 % of control
same,T/C,[11],100 % of control
same,T/C,[12],101 % of control
CC1(C)C=C(Cc2ccccc2)C(=O)c2ccccc21,T/C,[1],90 % of control
same,T/C,[15],100 % of control
same,T/C,[16],95 % of control
COc1cccc2c1C(=O)c1c(O)c3c(c(O)c1C2=O)CC(O)(C(O)CO)CC3OC1CC(N2CCOCC2C#N)C(O)C(C)O1 (centres undefined),T/C,"dose: 0.2 mg/kg/injection, schedule: Q04DX003 (ip), vehicle: water",176 % of control
same,T/C,"dose: 0.8 mg/kg/injection, schedule: Q04DX003 (ip), vehicle: water",89 % of control
same,T/C,"dose: 6.25 micrograms/kg/injection, schedule: Q04DX003 (ip), vehicle: water",101 % of control
same,T/C,"dose: 12.5 micrograms/kg/injection, schedule: Q04DX003 (ip), vehicle: water",107 % of control and 113 % of control
same,T/C,"dose: 25.0 micrograms/kg/injection, schedule: Q04DX003 (ip), vehicle: water",106 % of control and 117 % of control
same,T/C,"dose: 50.0 micrograms/kg/injection, schedule: Q04DX003 (ip), vehicle: water",119 % of control and 120 % of control
same,T/C,"dose: 100.0 micrograms/kg/injection, schedule: Q04DX003 (ip), vehicle: water",124 % of control
same,T/C,"dose: 200.0 micrograms/kg/injection, schedule: Q04DX003 (ip), vehicle: water",124 % of control
O=C(CCl)NC(Cc1ccsc1)C(=O)O (centres undefined),T/C,[9],93 % of control
same,T/C,[11],102 % of control
CCN(CC)CC(C)(C)C(=O)/C=C/c1ccc(/C=C/C(=O)C(C)(C)CN(CC)CC)cc1,T/C,"dose: 7.5 mg/kg/injection, schedule: Q01DX005 (ip), vehicle: saline",115 % of control and 124 % of control
CCCCC(NC(=O)CC)C(=O)O (centres undefined),T/C,"dose: 6.25 mg/kg/injection, schedule: Q01DX009 (ip), vehicle: saline",107 % of control
same,T/C,"dose: 12.5 mg/kg/injection, schedule: Q01DX009 (ip), vehicle: saline",94 % of control
same,T/C,"dose: 25.0 mg/kg/injection, schedule: Q01DX009 (ip), vehicle: saline",98 % of control
same,T/C,[12],100 % of control
O=c1[nH]c(=O)n(C2OC(CO)C(O)C2O)c(NNc2ccccc2)c1NNc1ccccc1 (centres undefined),T/C,[17],97 % of control
same,T/C,[18],111 % of control
same,T/C,[19],117 % of control
CN(C)CCCN1c2ccc(O)cc2Sc2ccc(Cl)cc21,T/C,"dose: 25.0 mg/kg/injection, schedule: Q04DX003 (ip), vehicle: saline with Tween-80",100 % of control
same,T/C,"dose: 50.0 mg/kg/injection, schedule: Q04DX003 (ip), vehicle: saline with Tween-80",95 % of control
same,T/C,[14],95 % of control
CN1CCc2c1cc(-c1ccncc1)c1c2N(C)CC1,T/C,[2],106 % of control
same,T/C,[3],107 % of control
same,T/C,"dose: 200.0 mg/kg/injection, schedule: Q01DX005 (ip), vehicle: Klucel (hydroxypropylcellulose) (HPC)",107 % of control
Clc1ccc(-c2csc3nc(-c4cccs4)nn23)cc1,T/C,[8],97 % of control
same,T/C,[10],95 % of control
same,T/C,"dose: 120.0 mg/kg/injection, schedule: Q01DX005 (ip), vehicle: Klucel (hydroxypropylcellulose) (HPC)",95 % of control
same,T/C,"dose: 240.0 mg/kg/injection, schedule: Q01DX005 (ip), vehicle: Klucel (hydroxypropylcellulose) (HPC)",93 % of control
COC(=O)Nc1csc(NC(=O)OC)n1,T/C,[17],96 % of control
same,T/C,[18],95 % of control
same,T/C,[19],87 % of control
CC(=O)NCc1ccccc1N1CCCC1,T/C,"dose: 100.0 mg/kg/injection, schedule: Q04DX003 (ip), vehicle: saline",101 % of control
same,T/C,"dose: 200.0 mg/kg/injection, schedule: Q04DX003 (ip), vehicle: saline",106 % of control
same,T/C,"dose: 400.0 mg/kg/injection, schedule: Q04DX003 (ip), vehicle: saline",101 % of control
C=CC(C)(C)c1ccc(O)c(CC=C(C)C)c1,T/C,"dose: 12.5 mg/kg/injection, schedule: Q01DX005 (ip), vehicle: Klucel (hydroxypropylcellulose) (HPC)",100 % of control
same,T/C,"dose: 25.0 mg/kg/injection, schedule: Q01DX005 (ip), vehicle: Klucel (hydroxypropylcellulose) (HPC)",102 % of control
same,T/C,[2],102 % of control
COc1ccc(OC)c(/C=N/N=C2\C(=O)Nc3c(Cl)cc(Cl)cc32)c1,T/C,[17],97 % of control
same,T/C,[18],98 % of control
same,T/C,[19],92 % of control
COCCCNC1=C(Cl)C(=O)c2ccccc2C1=O,T/C,[5],99 % of control
same,T/C,[1],117 % of control
same,T/C,[15],104 % of control
